Measurements: ChEMBL document CHEMBL5244269, “Improving metabolic stability and removing aldehyde oxidase liability in a 5-azaquinazoline series of IRAK4 inhibitors” (Bioorg Med Chem, 2020)

Tests used:
[1] = biological target: T1, Interleukin-1 receptor-associated kinase 4 (Homo sapiens, UniProt Q9NWZ3); experiment: Inhibition of IRAK4 (unknown origin) phosphorylation by cell based assay
T1 sequence (Q9NWZ3 whole entry): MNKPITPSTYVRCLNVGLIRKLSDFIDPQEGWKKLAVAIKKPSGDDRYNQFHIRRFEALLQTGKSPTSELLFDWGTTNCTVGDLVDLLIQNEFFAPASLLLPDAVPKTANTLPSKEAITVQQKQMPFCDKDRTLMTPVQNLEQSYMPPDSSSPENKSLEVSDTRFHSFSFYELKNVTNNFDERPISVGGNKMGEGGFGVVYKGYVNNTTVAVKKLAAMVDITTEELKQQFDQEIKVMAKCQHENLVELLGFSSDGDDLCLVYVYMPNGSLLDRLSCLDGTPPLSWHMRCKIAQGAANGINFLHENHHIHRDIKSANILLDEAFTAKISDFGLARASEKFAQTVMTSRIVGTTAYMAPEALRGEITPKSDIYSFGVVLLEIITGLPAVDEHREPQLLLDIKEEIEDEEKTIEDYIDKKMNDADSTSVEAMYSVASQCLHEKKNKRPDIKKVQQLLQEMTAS

[2] = biological target: T2, Receptor-type tyrosine-protein kinase FLT3 (Homo sapiens, UniProt P36888); experiment: Inhibition of FLT3 (unknown origin) in presence of 600 uM ATP
T2 sequence (P36888 whole entry): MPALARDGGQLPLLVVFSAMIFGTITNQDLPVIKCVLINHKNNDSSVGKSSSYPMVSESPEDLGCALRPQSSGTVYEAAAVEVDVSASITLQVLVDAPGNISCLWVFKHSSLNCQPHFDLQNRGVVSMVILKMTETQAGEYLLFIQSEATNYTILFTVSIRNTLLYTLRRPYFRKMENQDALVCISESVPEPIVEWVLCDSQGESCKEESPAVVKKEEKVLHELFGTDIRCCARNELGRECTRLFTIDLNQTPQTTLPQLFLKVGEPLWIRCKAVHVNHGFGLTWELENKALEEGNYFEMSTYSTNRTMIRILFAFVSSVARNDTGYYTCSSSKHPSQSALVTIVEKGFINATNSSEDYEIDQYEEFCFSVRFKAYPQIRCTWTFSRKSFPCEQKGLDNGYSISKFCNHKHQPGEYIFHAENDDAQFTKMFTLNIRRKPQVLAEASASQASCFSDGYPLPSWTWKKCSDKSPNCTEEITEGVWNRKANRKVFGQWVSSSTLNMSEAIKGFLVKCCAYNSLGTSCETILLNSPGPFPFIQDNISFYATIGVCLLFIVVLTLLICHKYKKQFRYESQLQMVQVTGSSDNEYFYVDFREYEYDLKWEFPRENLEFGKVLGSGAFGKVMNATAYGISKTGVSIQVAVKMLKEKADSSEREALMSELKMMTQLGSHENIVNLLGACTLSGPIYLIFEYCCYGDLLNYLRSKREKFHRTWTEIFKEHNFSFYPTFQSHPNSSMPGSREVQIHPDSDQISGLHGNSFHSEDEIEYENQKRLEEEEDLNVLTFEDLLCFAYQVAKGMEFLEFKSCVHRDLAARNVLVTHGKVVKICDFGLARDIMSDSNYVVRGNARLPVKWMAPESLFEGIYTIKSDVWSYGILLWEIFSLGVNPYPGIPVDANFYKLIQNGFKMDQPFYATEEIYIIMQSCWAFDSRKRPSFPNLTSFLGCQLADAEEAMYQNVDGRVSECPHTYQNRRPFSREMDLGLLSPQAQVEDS

[3] = biological target: Tyrosine-protein kinase BTK (Homo sapiens, UniProt Q06187); experiment: Inhibition of BTK (unknown origin) in presence of 25 uM ATP
Tyrosine-protein kinase BTK, sequence (Q06187 whole entry): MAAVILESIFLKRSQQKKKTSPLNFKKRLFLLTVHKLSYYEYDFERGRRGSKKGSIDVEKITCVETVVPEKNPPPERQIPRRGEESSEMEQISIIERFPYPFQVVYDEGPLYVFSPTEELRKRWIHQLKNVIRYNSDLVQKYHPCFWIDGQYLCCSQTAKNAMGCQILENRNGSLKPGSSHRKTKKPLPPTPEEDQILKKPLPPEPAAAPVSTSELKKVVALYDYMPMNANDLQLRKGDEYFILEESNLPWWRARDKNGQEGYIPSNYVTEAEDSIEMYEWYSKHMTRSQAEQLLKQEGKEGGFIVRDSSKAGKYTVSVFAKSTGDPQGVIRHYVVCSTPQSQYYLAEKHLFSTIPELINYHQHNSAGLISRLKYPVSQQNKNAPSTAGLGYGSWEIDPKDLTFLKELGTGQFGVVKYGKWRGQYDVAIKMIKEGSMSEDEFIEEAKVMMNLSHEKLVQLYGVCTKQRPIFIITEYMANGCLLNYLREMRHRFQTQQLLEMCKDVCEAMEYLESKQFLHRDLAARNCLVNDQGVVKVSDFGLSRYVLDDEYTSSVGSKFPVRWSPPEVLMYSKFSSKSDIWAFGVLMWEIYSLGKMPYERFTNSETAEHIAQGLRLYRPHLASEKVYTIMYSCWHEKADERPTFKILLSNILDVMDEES

[4] = Efflux ratio of apparent permeability basolateral to apical side over apical to basolateral side in human Caco-2 cells measured for 360 mins by liquid scintillation counting based analysis; assay type: ADME, cell-based
[5] = Oral bioavailability in mouse at 1 mg/kg; assay type: ADME, organism-based; settings: in vivo
OCI-Ly10 [6] = experiment: Growth inhibition of human OCILY10 cells at 0.17 uM incubated for 3 days (Rvb= -3%); assay type: functional; settings: OCI-Ly10, 72 h, time 3 day, read-out: GI
OCI-Ly10 [7] = experiment: Growth inhibition of human OCILY10 cells at 1.7 uM incubated for 3 days (Rvb= -3%); assay type: functional; settings: OCI-Ly10, 72 h, time 3 day, read-out: GI
[8] = Metabolic stability in human liver microsomes assessed as intrinsic clearance; assay type: ADME, Microsome; settings: read-out: CLH
SUD4 [9] = experiment: Growth inhibition of human SU-DHL-4 cells at 10 uM incubated for 3 days (reference value: -1%); assay type: functional; settings: SU-DHL-4, 72 h, time 3 day, read-out: GI
SUD4 [10] = experiment: Growth inhibition of human SU-DHL-4 cells at 3.3 uM incubated for 3 days (reference value: -1%); assay type: functional; settings: SU-DHL-4, 72 h, time 3 day, read-out: GI
SUD4 [11] = experiment: Growth inhibition of human SU-DHL-4 cells at 1.7 uM incubated for 3 days (reference value: -1%); assay type: functional; settings: SU-DHL-4, 72 h, time 3 day, read-out: GI
[12] = Terminal half life in cynomolgus monkey at 1 mg/kg, iv; assay type: ADME, organism-based, Macaca fascicularis; settings: in vivo, read-out: beta t1/2 (converted)
[13] = Volume of distribution at steady state in cynomolgus monkey at 1 mg/kg, iv; assay type: ADME, organism-based, Macaca fascicularis; settings: in vivo, read-out: Vdss
[14] = Metabolic stability in mouse hepatocytes assessed as intrinsic clearance measured per 10^6 cells; assay type: ADME, cell-based, Hepatocyte; settings: read-out: CLH
[15] = Plasma protein binding in mouse assessed as free fraction by equilibrium dialysis analysis; assay type: ADME, cell-free
[16] = Metabolic stability in dog liver microsomes assessed as intrinsic clearance; assay type: ADME, Canis lupus familiaris, Microsome; settings: read-out: CLH

Which results are given for `Cc1ncc(-c2nc3c(NC(C)C)nc(Nc4cnn(C5CC6(C5)CN(C)C6)c4)nc3cc2F)cn1`?
IC50 [1]: 210 nM; IC50 [2]: 1500 nM; IC50 [3]: > 10000 nM; efflux ratio at 6 h [4]: 4.2; bioavailability [5]: ≤ 10%; inhibition of growth at 0.17 µM (OCI-Ly10 [6]): 5%; inhibition of growth at 1.7 µM (OCI-Ly10 [7]): 75%; microsomal CLint [8]: < 3 µL/min/mg

For `CC[C@@H]1[C@H](F)C(=O)N[C@@H]1COc1nccc2cc(C(N)=O)c(OC)cc12` [ZIMLOVISERTIB], which inhibition of growth at 10 µM (SUD4 [9]) is on record?
Its inhibition of growth at 10 µM is 2%.

And the inhibition of growth at 3.3 µM (SUD4 [10])?
Its inhibition of growth at 3.3 µM is 1%.

And the inhibition of growth at 1.7 µM (SUD4 [11])?
Its inhibition of growth at 1.7 µM is 1%.

Which IC50 [1] does the source give for `Cc1ncc(-c2nc3c(OC4(C)CC4)nc(Nc4cnn(C5CCN(C)CC5)c4)nc3cc2F)cn1` here?
The IC50 was 110 nM.

And the half-life [12]?
Its half-life is 1.4 h.

What about the IC50 [2] of the same compound?
Its IC50 is over 9000 nM.

What about the IC50 [3] of the same compound?
The IC50 was over 8000 nM.

And the efflux ratio at 6 h [4]?
The efflux ratio at 6 h was 1.4.

What about the Vd [13] of the same compound?
The Vd was 8.6 L/kg.

And the hepatocyte CLint [14]?
Its hepatocyte CLint is 11 µL/min/1e6 cells.

What about the fraction unbound [15] of the same compound?
Its fraction unbound is 0.16.

And the inhibition of growth at 0.17 µM (OCI-Ly10 [6])?
Its inhibition of growth at 0.17 µM is 1%.

What about the inhibition of growth at 10 µM (SUD4 [9]) of the same compound?
The inhibition of growth at 10 µM was 0%.

What about the inhibition of growth at 1.7 µM (OCI-Ly10 [7]) of the same compound?
The inhibition of growth at 1.7 µM was 44%.

And the inhibition of growth at 3.3 µM (SUD4 [10])?
The inhibition of growth at 3.3 µM was -2%.

What about the microsomal CLint [16] of the same compound?
The microsomal CLint was 21 µL/min/mg.

And the microsomal CLint [8]?
Its microsomal CLint is 58 µL/min/mg.

And the inhibition of growth at 1.7 µM (SUD4 [11])?
The inhibition of growth at 1.7 µM was -2%.
